Results from patent publication US20120225097A1, “PIPERAZINECARBOXAMIDE DERIVATIVE USEFUL AS A MODULATOR OF FATTY ACID AMIDE HYDROLASE (FAAH)” (priority 2009, published 2012).
Values joined by “and” are separate entries in the source; they are usually repeats but may differ in a detail not shown here. Equal values may be shown once. Where a name gives a salt, the structure may show the parent alone.

Key:
human FAAH = target: T1, human FAAH (Homo sapiens, UniProt O00519); experiment: Assay Method 1: FAAH assay, anandamide hydrolysis in cell homogenate; assay type: biochemical; conditions: average value (standard error of the mean in parenthesis); 3H-AEA 80 nM, 1 h rt
T1 construct: expressed in transfected cells
T1 sequence (O00519 1-579): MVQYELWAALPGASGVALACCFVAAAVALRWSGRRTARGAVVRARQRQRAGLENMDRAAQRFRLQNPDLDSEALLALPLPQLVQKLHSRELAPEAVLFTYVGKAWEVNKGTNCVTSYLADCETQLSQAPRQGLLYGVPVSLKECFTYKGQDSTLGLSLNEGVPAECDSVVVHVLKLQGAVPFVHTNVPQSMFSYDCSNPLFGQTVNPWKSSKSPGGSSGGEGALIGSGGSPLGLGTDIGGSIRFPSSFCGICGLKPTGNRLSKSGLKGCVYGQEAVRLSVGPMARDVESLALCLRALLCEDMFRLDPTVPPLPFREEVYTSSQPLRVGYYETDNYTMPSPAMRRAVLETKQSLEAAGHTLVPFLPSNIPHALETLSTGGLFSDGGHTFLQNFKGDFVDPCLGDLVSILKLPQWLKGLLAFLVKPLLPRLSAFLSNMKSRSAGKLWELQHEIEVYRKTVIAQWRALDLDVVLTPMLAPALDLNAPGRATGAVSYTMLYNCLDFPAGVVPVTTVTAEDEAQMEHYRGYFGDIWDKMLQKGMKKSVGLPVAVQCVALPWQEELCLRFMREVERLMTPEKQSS
Procedure: A. Transfection of Cells with Human FAAH
A 10-cm tissue culture dish with a confluent monolayer of SK-N-MC cells was split 2 days (d) prior to transfection. Using sterile technique, the media was removed and the cells were detached from the dish by the addition of trypsin. One fifth of the cells were then placed onto a new 10-cm dish. Cells were grown in a 37° C. incubator with 5% CO2 in Minimal Essential Media Eagle with 10% Fetal Bovine Serum. After 2 d, cells were approximately 80% confluent. These cells were removed from the dish with trypsin and pelleted in a clinical centrifuge. The pellet was re-suspended in 400 μL complete media and transferred to an electroporation cuvette with a 0.4 cm gap between the electrodes. Supercoiled human FAAH cDNA (1 μg), corresponding to NCBI accession NM_001441, was added to the cells and mixed. The voltage for the electroporation was set at 0.25 kV, and the capacitance was set at 960 μF. After electroporation, the cells were diluted into complete media (10 mL) and plated onto four 10-cm dishes. Due to variability in the efficiency of electroporation, four different concentrations of cells were plated. The ratios used were 1:20, 1:10, and 1:5, with the remainder of the cells being added to the fourth dish. The cells were allowed to recover for 24 h before adding the selection media (complete media with 600 μg/mL G418). After 10 d, dishes were analyzed for surviving colonies of cells. Dishes with well-isolated colonies were used. Cells from individual colonies were isolated and tested.
T84 frozen cell pellets or transfected SK-N-MC cells (contents of 1×15 cm culture dishes) were homogenized in 50 mL of FAAH assay buffer (125 mM Tris, 1 mM EDTA, 0.2% Glycerol, 0.02% Triton X-100, 0.4 mM Hepes, pH 9). The assay mixture consisted of 50 μL of the cell homogenate, 10 μL of the test compound, and 40 μL of anandamide [1-^3H-ethanolamine] (^3H-AEA, Perkin-Elmer, 10.3 Ci/mmol), which was added last, for a final tracer concentration of 80 nM. The reaction mixture was incubated at rt for 1 h. […]

[1] = system: Langendorff isolated heart; experiment: Assay Method 3: Langendorff isolated heart protocol; parameters: species or system Sprague-Dawley rats; conditions: isolated rat heart; for effect on left ventricular developed pressure (LVDevP): 30 μM; for effect on left ventricular systolic pressure (LVSP): maximum concentration tested 30 μM; for hearts showing greater than 30% slowing of heart rate: perfused at 30 μM; for hearts showing greater than 30% heart rate slowing: bath concentration 26 μM
Procedure: Langendorff Isolated Heart Protocol
Male Sprague-Dawley rats (300-500 g) were anesthetized by an intraperitoneal injection of sodium pentobarbital (50 mg/kg), and then euthanized via cardiectomy. Hearts were rapidly removed, mounted on a
A ventricular drain and fluid-filled latex balloon was secured in the left ventricle with a purse string suture at the atrial appendage. Hearts were not paced. […] The hearts were maintained at approximately 37° C. while suspended in a glass chamber and bathed with Krebs-Henseleit buffer. The latex balloon in the left ventricle (LV) was expanded with water to achieve a LV end-diastolic pressure (LVEDP) of approximately 10-15 mmHg. The balloon was connected via tubing to a pressure transducer to measure LVEDP, LV […] pressure (LVDP) and LV systolic pressure (LVSP). Coronary perfusion pressure (CPP) was measured with a pressure transducer connected to a side-arm port of the aortic cannula.
Individual hearts were equilibrated for approximately 10-15 minutes. Following this equilibration period, baseline measurements were collected for approximately 15 minutes. After this period, a first heart was exposed to test compound for a total 75 min (comprising five increasing concentrations of test compound for approximately 15 minutes at each concentration) with measurements collected continuously. Test compound was dissolved in DMSO and then added directly to the experiment perfusion medium.
A one mL sample of perfusion medium was taken from the heart exudate at the end of each 15 minute monitoring period. The samples were frozen on dry ice, stored in a freezer set to maintain −80° C. until analysis. At the conclusion of the experiment, the hearts were frozen with liquid nitrogen and stored in a freezer set to maintain a temperature of −80° C. until analyzed.

| SMILES | IC50 (human FAAH) [nM] | effect on left ventricular developed pressure (LVDevP) [1] | effect on left ventricular systolic pressure (LVSP) [1] | hearts showing greater than 30% slowing of heart rate [1] | hearts showing greater than 30% heart rate slowing [1] | hearts showing greater than 30% heart rate slowing ([1]; listed as 4-[3-(4-bromophenoxy)benzyl]-N-pyridin-3-ylpiperazine-1-carboxamide bis-hydrochl) | effect on left ventricular systolic pressure (LVSP) ([1]; listed as N-pyridin-3-yl-4-{3-[4-(trifluoromethyl)phenoxy]benzyl}piperazine-1-carboxamide , bis-hydrochloride dihydrate) | effect on left ventricular systolic pressure (LVSP) ([1]; listed as N-pyridin-3-yl-4-{3-[4-(trifluoromethyl)phenoxy]benzyl}piperazine-1-carboxamide, bis-hydrochloride dihydrate) |
| --- | --- | --- | --- | --- | --- | --- | --- | --- |
| O=C(Nc1cccnc1)N1CCN(Cc2cccc(Oc3ccc(Cl)cc3)c2)CC1 [4-({3-[(4-Chlorophenyl)oxy]phenyl}methyl)-N-pyridin-3-ylpiperazine-1-carboxamide] | 2.4 | near-doubling | marked increase | all hearts (n=4) and 4/4 |  |  |  |  |
| O=C(Nc1cccnc1)N1CCN(Cc2cccc(Oc3ccc(Br)cc3)c2)CC1 [4-[3-(4-Bromophenoxy)benzyl]-N-pyridin-3-ylpiperazine-1-carboxamide] | 1 |  |  |  | 3/4 | three of four |  |  |
| O=C(Nc1cccnc1)N1CCN(Cc2cccc(Oc3ccc(C(F)(F)F)cc3)c2)CC1 [Example 1, N-Pyridin-3-yl-4-{3-[4-(trifluoromethyl)phenoxy]benzyl}piperazine-1-carboxamide, bis-hydrochloride dihydrate] | 1 | decrease |  | two of five |  |  | did not induce an abrupt increase | did not |
